The values below come from paper PMC10774164, “Hydrolysis of ionic liquid–treated substrate with an Iocasia fonsfrigidae strain SP3-1 endoglucanase” (Applied Microbiology and Biotechnology, 2024).

The structures appear in SMILES notation.

The test system of this experiment is T1, IfCelS12A.
T1 construct: tag removal not described
Briefly: hydrolysis kinetics, Lineweaver-Burk plot. In kind it is biochemical, Iocasia fonsfrigidae. To be noted: 50 mM Tris-HCl pH 7.0, 50 °C, 10 min, 0.5 μM enzyme. The text has this:
hydrolysis kinetics, Lineweaver-Burk plot on IfCelS12A
Take `OC[C@H]1O[C@@H](O[C@H]2[C@H](O)[C@@H](O)[C@H](O[C@H]3[C@H](O)[C@@H](O)[C@H](O[C@H]4[C@H](O)[C@@H](O)[C@H](O[C@H]5[C@H](O)[C@@H](O)[C@H](O[C@H]6[C@H](O)[C@@H](O)C(O)O[C@@H]6CO)O[C@@H]5CO)O[C@@H]4CO)O[C@@H]3CO)O[C@@H]2CO)[C@H](O)[C@@H](O)[C@@H]1O` (stereo partly drawn) [G6, Cellohexaose]: the Michaelis-Menten constant (Km) stood at 390 µM.
Then `OC[C@H]1O[C@@H](O[C@H]2[C@H](O)[C@@H](O)[C@H](O[C@H]3[C@H](O)[C@@H](O)[C@H](O[C@H]4[C@H](O)[C@@H](O)C(O)O[C@@H]4CO)O[C@@H]3CO)O[C@@H]2CO)[C@H](O)[C@@H](O)[C@@H]1O` (stereo partly drawn) [G4, Cellotetraose], with 250 µM.
For `OC[C@H]1O[C@@H](O[C@H]2[C@H](O)[C@@H](O)[C@H](O[C@H]3[C@H](O)[C@@H](O)[C@H](O[C@H]4[C@H](O)[C@@H](O)[C@H](O[C@H]5[C@H](O)[C@@H](O)C(O)O[C@@H]5CO)O[C@@H]4CO)O[C@@H]3CO)O[C@@H]2CO)[C@H](O)[C@@H](O)[C@@H]1O` (stereo partly drawn) [G5, Cellopentaose], the Michaelis constant (Km) was 270 µM.
